Data taken from patent US20240050576A1, “METHODS AND COMPOUNDS FOR THE TREATMENT OF GENETIC DISEASE” (Design Therapeutics, Inc., priority 2020, published 2024).
Like-named read-outs stand apart in the source and are kept apart here.

Test system: human FXN
Experiment: FXN mRNA expression by qRT-PCR in GM15850 cells after 48 hr compound treatment
Type: cell-based
Details: read-out: EC50 WT (nM, 48 hr)
Method: Cell culture: Cells were cultured in RPMI1640 medium+15% FBS. Cells were maintained at a density between 2e5/mL and 1e6/mL. Cells were centrifuged, resuspended in fresh medium, counted and plated at 150,000 cells per well in 100 uL in a non-coated, flat bottom tissue culture plate.
Compound treatment: 10 mM stock solution of FA GeneTAC was diluted 1:10 in DMSO followed by a 1:100 dilution in growth medium. […] Compound was then diluted at a 1:3 ratio into growth medium containing 0.01% DMSO. 5-point, 3-fold dose response curve was generated. 11 μL of 10× compound was added to wells containing 100 μL cell suspension of GM15850. 11 μL growth medium containing 0.01% DMSO was added to all wells not treated with FA GeneTAC. Cells were allowed to incubate for 48 hrs prior to cell lysis using guanidine isothiocyanate solution.
RNA isolation: Total RNA was isolated and purified in 384-well column filter plates using chaotropic salt.
qRT-PCR: qRT-PCR reactions were assembled using AgPath-ID reagents (Thermo Fisher) using 6 uL mastermix and 4 μL RNA. qRT-PCR TaqMan primer probe sets against human FXN (Assay ID Hs01075496_m1) and human GAPDH (Assay ID Hs00266705_g1) were used to measure the intended targets. qRT-PCR was run on the ThermoFisher QuantStudio 6 PRO instrument using the manufacturer's recommended cycling conditions.
Data analysis: qPCR data was analyzed using Thermo Fisher Design and Analysis software. Data was exported to Excel and hFXN expression was normalized to hGAPDH expression.

[1] = Homo sapiens, GM15850 cells, 48 hr incubation, hFXN normalized to hGAPDH

Structure (SMILES) | EC50 [1] | also measured
CC(=O)N1c2ccc(-c3ccc(C(=O)NCCOCCOCCOCCOCCOCCOCCOCCNC(=O)CCNC(=O)c4nc(NC(=O)CCNC(=O)c5cc(NC(=O)c6nc(NC(=O)CCNC(=O)c7cc(NC(=O)c8nccn8C)cn7C)cn6C)cn5C)cn4C)cc3)cc2[C@H](Nc2ccc(Cl)cc2)C[C@@H]1C [Compound 35, N-(5-((3-((2-((1-(4-((2S,4R)-1-acetyl-4-((4-chlorophenyl)amino)-2-methyl-1,2,3,4-tetrahydroquinolin-6-yl)phenyl)-1,27-dioxo-5,8,11,14,17,20,23-heptaoxa-2,26-diazanonacosan-29-yl)carbamoyl)-1-methyl-1H-imidazol-4-yl)amino)-3-oxopropyl)carbamoyl)-1-methyl-1H-pyrrol-3-yl)-1-methyl-4-(3-(1-methyl-4-(1-methyl-1H-imidazole-2-carboxamido)-1H-pyrrole-2-carboxamido)propanamido)-1H-imidazole-2-carboxamide] | < 100 nM | 
COc1ccc2c(c1)C(c1ccc(Cl)cc1)=N[C@@H](CC(=O)Nc1ccc(OCCOCCOCCOCCOCCOCCOCCOCCOCCNC(=O)CCNC(=O)c3nc(NC(=O)CCNC(=O)c4cc(NC(=O)c5nc(NC(=O)CCNC(=O)c6cc(NC(=O)c7nccn7C)cn6C)cn5C)cn4C)cn3C)cc1)c1nnc(C)n1-2 [Compound 25] | 100 to 500 nM | 
CC(=O)N1c2ccc(-c3ccc(C(=O)NCCOCCOCCOCCOCCOCCOCCOCCOCCNC(=O)CCNC(=O)c4nc(NC(=O)CCNC(=O)c5cc(NC(=O)c6nc(NC(=O)CCNC(=O)c7cc(NC(=O)c8nccn8C)cn7C)cn6C)cn5C)cn4C)cc3)cc2[C@H](Nc2ccc(Cl)cc2)C[C@@H]1C [Compound 36] | < 100 nM | 
COC[C@@H](C)n1c(C2CCN(CCOCCOCCOCCOCCOCCC(=O)NCCCN(C)CCCNC(=O)CCNC(=O)c3nc(NC(=O)CCNC(=O)c4cc(NC(=O)c5nc(NC(=O)CCNC(=O)c6cc(NC(=O)c7nccn7C)cn6C)cn5C)cn4C)cn3C)CC2)nc2cnc3cc(-c4c(C)noc4C)c(OC)cc3c21 [Compound 10] | 100 to 500 nM | 
Cc1sc2c(c1C)C(c1ccc(Cl)cc1)=N[C@@H](CC(=O)Nc1ccc(OCCOCCOCCOCCOCCOCCC(=O)NCCCOCCCNC(=O)CCNC(=O)c3nc(NC(=O)CCNC(=O)c4cc(NC(=O)c5nc(NC(=O)CCNC(=O)c6cc(NC(=O)c7nccn7C)cn6C)cn5C)cn4C)cn3C)cc1)c1nnc(C)n1-2 [Compound 58] | < 100 nM | 
COc1ccc2c(c1)C(c1ccc(Cl)cc1)=N[C@H](CC(=O)Nc1ccc(OCCOCCOCCOCCOCCOCCC(=O)NCCCN(C)CCCNC(=O)CCNC(=O)c3nc(NC(=O)CCNC(=O)c4cc(NC(=O)c5nc(NC(=O)CCNC(=O)c6cc(NC(=O)c7nccn7C)cn6C)cn5C)cn4C)cn3C)cc1)c1nnc(C)n1-2 [Compound 11] | > 500 nM | 
COc1ccc2c(c1)C(c1ccc(Cl)cc1)=N[C@@H](CC(=O)Nc1ccc(OCCOCCOCCOCCOCCOCCC(=O)NCCCN(C)CCCNC(=O)CCNC(=O)c3nc(NC(=O)CCNC(=O)c4cc(NC(=O)c5nc(NC(=O)CCNC(=O)c6cc(NC(=O)c7nccn7C)cn6C)cn5C)cn4C)cn3C)cc1)c1nnc(C)n1-2 [Compound 6] | 100 to 500 nM | 
CC(=O)N1c2ccc(-c3ccc(C(=O)NCCOCCOCCOCCOCCOCCOCCOCCOCCNC(=O)c4nc(NC(=O)CCNC(=O)c5cc(NC(=O)c6nc(NC(=O)CCNC(=O)c7cc(NC(=O)c8nc(NC(=O)CCNC(=O)COCCOCCOCCNC(=N)N)cn8C)cn7C)cn6C)cn5C)cn4C)cc3)cc2[C@H](Nc2ccc(Cl)cc2)C[C@@H]1C [Compound 87] | 100 to 500 nM | 
COc1ccc2c(c1)C(c1ccc(Cl)cc1)=N[C@H](CC(=O)Nc1ccc(OCCOCCOCCOCCOCCOCCOCCOCCOCCNC(=O)CCNC(=O)c3nc(NC(=O)CCNC(=O)c4cc(NC(=O)c5nc(NC(=O)CCNC(=O)c6cc(NC(=O)c7nccn7C)cn6C)cn5C)cn4C)cn3C)cc1)c1nnc(C)n1-2 [Compound 26] | 100 to 500 nM | 
CC(=O)N1c2ccc(-c3ccc(C(=O)NCCOCCOCCOCCOCCOCCOCCOCCOCCNC(=O)c4cc(NC(=O)c5nc(NC(=O)CCNC(=O)c6cc(NC(=O)c7nc(NC(=O)CCNC(=O)COCCOCCOCCN8CCN(CC9CCNCC9)CC8)cn7C)cn6C)cn5C)cn4C)cc3)cc2[C@H](Nc2ccc(Cl)cc2)C[C@@H]1C [Compound 73] | > 500 nM | 
CCCNC(=O)c1nc(NC(=O)CCNC(=O)c2cc(NC(=O)c3nc(NC(=O)CCNC(=O)c4cc(NC(=O)c5nc(NC(=O)CCNC(=O)COCCOCCOCCOCCOCCOCCOCCOCCOc6ccc(NC(=O)C[C@@H]7N=C(c8ccc(Cl)cc8)c8c(sc(C)c8C)-n8c(C)nnc87)cc6)cn5C)cn4C)cn3C)cn2C)cn1C [Compound 52] | < 100 nM | 
Cc1cc(-c2nc3cnc(C4CCN(C(=O)COCCOCCOCCOCCOCCC(=O)NCCCN(C)CCCNC(=O)CCNC(=O)c5nc(NC(=O)CCNC(=O)c6cc(NC(=O)c7nc(NC(=O)CCNC(=O)c8cc(NC(=O)c9nccn9C)cn8C)cn7C)cn6C)cn5C)CC4)cc3n2[C@@H](C)c2ccccc2)nn(C)c1=O [Compound 19] | < 100 nM | 
CC(=O)N1c2ccc(-c3ccc(C(=O)NCCOCCOCCOCCOCCOCCOCCOCCOCCNC(=O)c4nc(NC(=O)CCNC(=O)c5cc(NC(=O)c6nc(NC(=O)CCNC(=O)c7cc(NC(=O)c8nc(NC(=O)CCNC(=O)[C@H](CCCNC(=N)N)NC(=O)[C@@H](N)CCCNC(=N)N)cn8C)cn7C)cn6C)cn5C)cn4C)cc3)cc2[C@H](Nc2ccc(Cl)cc2)C[C@@H]1C [Compound 90] |  | EC50 (GM15850 cells, 48 hr incubation, hFXN normalized to hGAPDH): 100 to 500 nM
CC(=O)N1c2ccc(-c3ccc(C(=O)NCCOCCOCCOCCOCCOCCOCCOCCOCCNC(=O)c4cc(NC(=O)c5nc(NC(=O)CCNC(=O)c6cc(NC(=O)c7nc(NC(=O)CCNC(=O)[C@H](CCCNC(=N)N)NC(=O)[C@@H](N)CCCNC(=N)N)cn7C)cn6C)cn5C)cn4C)cc3)cc2[C@H](Nc2ccc(Cl)cc2)C[C@@H]1C [Compound 75] | > 500 nM | 
Cc1sc2c(c1C)C(c1ccc(Cl)cc1)=N[C@@H](CC(=O)Nc1ccc(OCCOCCOCCOCC(=O)N3CCN(CCOCCOCCOCCNC(=O)CCNC(=O)c4nc(NC(=O)CCNC(=O)c5cc(NC(=O)c6nc(NC(=O)CCNC(=O)c7cc(NC(=O)c8nccn8C)cn7C)cn6C)cn5C)cn4C)CC3)cc1)c1nnc(C)n1-2 [Compound 39] | < 100 nM | 
Cc1sc2c(c1C)C(c1ccc(Cl)cc1)=N[C@@H](CC(=O)Nc1ccc(OCCOCCOCCOCCOCCOCCNC(=O)CCNC(=O)c3nc(NC(=O)CCNC(=O)c4cc(NC(=O)c5nc(NC(=O)CCNC(=O)c6cc(NC(=O)c7nccn7C)cn6C)cn5C)cn4C)cn3C)cc1)c1nnc(C)n1-2 [Compound 21] | 100 to 500 nM | 
Cc1sc2c(c1C)C(c1ccc(Cl)cc1)=N[C@@H](CC(=O)Nc1cncc(OCCOCCOCCOCCOCCOCCOCCOCCOCCNC(=O)CCNC(=O)c3nc(NC(=O)CCNC(=O)c4cc(NC(=O)c5nc(NC(=O)CCNC(=O)c6cc(NC(=O)c7nccn7C)cn6C)cn5C)cn4C)cn3C)c1)c1nnc(C)n1-2 [Compound 103] | < 100 nM | 
Cc1sc2c(c1C)C(c1ccc(Cl)cc1)=N[C@@H](CC(=O)Nc1ccc(OCCOCCOCCNC(=O)[C@H](CCCNC(=N)N)NC(=O)[C@H](CCCNC(=N)N)NC(=O)CCOCCOCCOCCNC(=O)CCNC(=O)c3nc(NC(=O)CCNC(=O)c4cc(NC(=O)c5nc(NC(=O)CCNC(=O)c6cc(NC(=O)c7nccn7C)cn6C)cn5C)cn4C)cn3C)cc1)c1nnc(C)n1-2 [Compound 99] |  | EC50 (Homo sapiens, GM15850, 48 h): < 100 nM
Cc1sc2c(c1C)C(c1ccc(Cl)cc1)=N[C@@H](CC(=O)Nc1ccc(OCCOCCOCCOCCOCCOCCOCCOCCC(=O)NCCCN(C)CCCNC(=O)c3cc(NC(=O)c4nc(NC(=O)CCNC(=O)c5cc(NC(=O)c6nc(NC(=O)CCNC(=O)c7cc(NC(=O)c8nccn8C)cn7C)cn6C)cn5C)cn4C)cn3C)cc1)c1nnc(C)n1-2 [Compound 56] | 100 to 500 nM | 
COC[C@@H](C)n1c(C2CCN(C(=O)COCCOCCOCCOCCOCCOCCOCCNC(=O)CCNC(=O)c3nc(NC(=O)CCNC(=O)c4cc(NC(=O)c5nc(NC(=O)CCNC(=O)c6cc(NC(=O)c7nccn7C)cn6C)cn5C)cn4C)cn3C)CC2)nc2cnc3cc(-c4c(C)noc4C)c(OC)cc3c21 [Compound 43, N-[5-[(2-[[2-([2-[(23-[4-[7-(3,5-dimethyl-1,2-oxazol-4-yl)-8-methoxy-1-[(2R)-1-methoxypropan-2-yl]imidazo[4,5-c]quinolin-2-yl]piperidin-1-yl]-23-oxo-3,6,9,12,15,18,21-heptaoxatricosan-1-yl)carbamoyl]ethyl]carbamoyl)-1-methylimidazol-4-yl]carbamoyl]ethyl)carbamoyl]-1-methylpyrrol-3-yl]-1-methyl-4-(3-[[1-methyl-4-(1-methylimidazole-2-amido)pyrrol-2-yl]formamido]propanamido) imidazole-2-carboxamide] | > 500 nM | 
Cc1sc2c(c1C)C(c1ccc(Cl)cc1)=N[C@@H](CC(=O)Nc1ccc(OCCOCCOCCOCCOCCOCCOCCOCC(=O)NCCCN(C)CCCNC(=O)c3cc(NC(=O)c4nc(NC(=O)CCNC(=O)c5cc(NC(=O)c6nc(NC(=O)CCNC(=O)c7cc(NC(=O)c8nccn8C)cn7C)cn6C)cn5C)cn4C)cn3C)cc1)c1nnc(C)n1-2 [Compound 57] | 100 to 500 nM | 
Cc1sc2c(c1C)C(c1ccc(Cl)cc1)=N[C@@H](CC(=O)Nc1ccc(OCCOCCOCCOCCOCCOCCOCCNC(=O)CCNC(=O)c3nc(NC(=O)CCNC(=O)c4cc(NC(=O)c5nc(NC(=O)CCNC(=O)c6cc(NC(=O)c7nccn7C)cn6C)cn5C)cn4C)cn3C)cc1)c1nnc(C)n1-2 [Compound 22] | 100 to 500 nM | 
